Results taken from patent publication US20260275319A1, “ARCHAEAL PEPTIDE RECOMBINASE – A NOVEL PEPTIDE LIGATING ENZYME” (MAX-PLANCK-GESELLSCHAFT ZUR FÖRDERUNG DER WISSENSCHAFTEN …, priority 2019, published 2026).

Columns and labels:
[1] = molecular target: M. jannaschii Adriase^S1A; settings: MST, 25° C., 10 nM FITC peptide, three independent measurements
Experimental: MST measurements were performed with a Monolith NT.115 (Nanotemper), using various MST power and laser intensity settings to test the general validity of the obtained data. The final results were obtained in three independent experiments and measured at a temperature of 25° C., using MST power 80% and laser intensity 40%.
In a second set of MST experiments, a more detailed analysis of the binding motif (FIG. 18A-F and table in FIG. 5B) was performed using synthetic peptides (Genscript) based on the M. jannaschii MtrA sequence. […] For the MST measurements, 10 nM of these peptides were mixed with a serial dilution of M. jannaschii Adriase^S1A and the experiment was otherwise performed as described for the M. jannaschii MtrA^Δ194-245-Adriase^S1A and the M. jannaschii MtrA^Δ174-245 Adriase^S1A interactions, above.

M. mazei Adriase = test: Ligation motif analysis with primary and secondary substrates; type: biochemical; settings: 25 μM substrates, 400× molar excess over Adriase, 50° C.

Sequence of M. jannaschii Adriase^S1A (as listed by the source): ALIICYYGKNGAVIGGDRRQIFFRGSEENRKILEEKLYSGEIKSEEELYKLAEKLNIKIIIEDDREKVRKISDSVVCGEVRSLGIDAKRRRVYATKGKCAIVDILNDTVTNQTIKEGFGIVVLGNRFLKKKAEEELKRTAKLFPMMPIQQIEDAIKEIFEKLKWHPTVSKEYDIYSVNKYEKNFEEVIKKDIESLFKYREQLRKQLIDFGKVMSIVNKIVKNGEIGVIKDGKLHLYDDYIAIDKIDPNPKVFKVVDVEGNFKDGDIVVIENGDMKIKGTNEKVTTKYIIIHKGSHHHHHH

| Sequence | KD [1] | Adriase activity with substrate (M. mazei Adriase) |
| --- | --- | --- |
| KECLSKDPGAIDEDPFIIELKFITC [(5)KDPGA(10)] | as tightly as M. jannaschii MtrA^Δ194-245 |  |
| PGAFDADP (Methanosarcina mazei Go1; M. mazei PGA(5); listed as Methanosarcina mazei) [M. mazei MtrA-derived secondary substrate peptide] |  | No Adriase activity |
